This note sets out measurements from ChEMBL document CHEMBL1201862, “PubChem BioAssay data set” (2004).

The structures appear in SMILES notation.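 Test compounds were applied to cells in 96-well plates for 48 hours at 5 doses. The concentration for 50% growth inhibition is given as GI50.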 Active and inactive are the calls of the source. No stated cut-off is given here; in the data, active = GI50 up to about 1.1 µM and inactive = higher.

Test systems include DLD-1; DMS-114; HOP-18; KM-20L2; LXFL 529; M19-MEL; RXF 631; SNB-78; XF498.
What all share (assay): NCI-60 cell line screen, 48 h

For `CC(/C=C/C(=O)c1sc(-n2nc(-c3ccccc3)cc2-c2ccccc2)nc1C)=C\c1ccccc1`, the GI50 is 29.9 µM (inactive) in the test on DLD-1; 16.9 µM (inactive) with DMS-114; > 10 µM (inactive) in the test on HOP-18; 20.7 µM (inactive) with KM-20L2; 38.4 µM (inactive) in the test on LXFL 529; 75 µM (inactive) with M19-MEL. Moreover, the GI50 was 65.9 µM (inactive) in the test with RXF 631, > 10 µM (inactive) in the test with SNB-78 and > 10 µM (inactive) with XF498.
Turning to `O=C(O)CCCNS(=O)(=O)c1ccc2ccccc2c1`, the GI50 in the test with DLD-1, in the test on HOP-18, in the test on KM-20L2, with LXFL 529, in the test with M19-MEL and in the test on RXF 631 was > 100 µM (inactive) throughout. For the same compound, the GI50 with XF498 was > 100 µM (inactive).
Turning to `COc1cc([C@@H]2c3cc4c(cc3[C@@H](OC3OC5COC(C)OC5C(O)C3O)[C@H]3COC(=O)[C@H]23)OCO4)cc(OC)c1O` (some centres undefined), the GI50 with DLD-1 was 37.2 µM (inactive); in the test on DMS-114 it was 5.57 µM (inactive); with HOP-18, 28.3 µM (inactive); in the test with KM-20L2, 70.8 µM (inactive); in the test on LXFL 529, 26.5 µM (inactive); with M19-MEL, 34.7 µM (inactive). Besides, the GI50 in the test on SNB-78 is 46.8 µM (inactive); in the test with XF498 it was 8.41 µM (inactive).
As to `COC(=O)C(Cc1cc(OC)c(OC)c(OC)c1)(NC(=O)c1ccccc1)P(=O)(OC)OC` (centres undefined), the GI50 in the test on DLD-1, in the test on DMS-114, with KM-20L2, in the test with LXFL 529, in the test on M19-MEL and with RXF 631 was > 100 µM (inactive) in each case. Also, the GI50 in the test on SNB-78 and in the test on XF498 was > 100 µM (inactive) throughout.
`CC(C)N(C(=O)C12C3C4C5(C#N)C3C1(C#N)C5C42I)C(C)C` (centres undefined): the GI50 is > 42.6 µM (inactive) with DLD-1; > 44.4 µM (inactive) with DMS-114; > 100 µM (inactive) in the test with HOP-18; > 100 µM (inactive) with KM-20L2; > 100 µM (inactive) with LXFL 529; 97.1 µM (inactive) in the test on M19-MEL. In addition, the GI50 with RXF 631, with SNB-78 and in the test on XF498 was > 100 µM (inactive) throughout.
On to `O=C(CC1OC(O)C(Cl)=C1Cl)c1cccnc1` (centres undefined), for which the GI50 in the test with DMS-114 is > 41.1 µM (inactive); in the test on HOP-18, > 100 µM (inactive); in the test on KM-20L2, > 100 µM (inactive); with LXFL 529 it was > 56.1 µM (inactive); with M19-MEL it was > 62.4 µM (inactive); with RXF 631, > 100 µM (inactive). Also, the GI50 with SNB-78 and with XF498 was > 100 µM (inactive) in each case.
On to `COC(=O)[C@]12CC=C3O[C@@H]4OC5(CCCCC5)O[C@@H]4C3[C@@H]1C(=O)CCC2=O` (some centres undefined), for which the GI50 in the test on DLD-1, with DMS-114, with HOP-18, in the test with KM-20L2, in the test with LXFL 529 and in the test with RXF 631 was > 100 µM (inactive) in each case. Further, the GI50 in the test with SNB-78 and in the test on XF498 was > 100 µM (inactive) throughout.
Turning to `O=C(c1cc2c(C(F)(F)F)onc2c2ccccc12)C(F)(F)F`, the GI50 in the test with DLD-1 was 0.484 µM (active); in the test with DMS-114, 2.15 µM (inactive); with HOP-18, 6.47 µM (inactive); with KM-20L2, 1.22 µM (inactive); in the test on LXFL 529, 0.347 µM (active); in the test on M19-MEL, 3.1 µM (inactive). Further, the GI50 was 2.38 µM (inactive) in the test on RXF 631 and 0.236 µM (active) in the test with SNB-78.
For the compound `Cc1[nH]c2ccccc2c1C1Cc2ccccc2N1C(=O)C#Cc1ccc([N+](=O)[O-])cc1` (centres undefined), the GI50 with DLD-1, with DMS-114, in the test with HOP-18, with KM-20L2, in the test on LXFL 529 and in the test on SNB-78 was > 100 µM (inactive) throughout. In addition, in the test with XF498, the GI50 was > 100 µM (inactive).
`CN(CCO)/N=N/c1n[nH]cc1C(N)=O`: the GI50 with DLD-1 is > 100 µM (inactive); in the test with DMS-114 it was > 100 µM (inactive); in the test with HOP-18 it was > 100 µM (inactive); in the test on KM-20L2 it was > 86.7 µM (inactive); in the test with M19-MEL, > 100 µM (inactive); in the test on SNB-78, > 100 µM (inactive). In the test with XF498, the GI50 was > 100 µM (inactive).
As for `CC(=O)NC1C(O)CC(OCCCSCCN)(C(=O)O)OC1C(O)C(O)CO` (centres undefined), the GI50 with DLD-1, in the test with DMS-114, in the test with HOP-18, with KM-20L2, in the test on LXFL 529 and in the test on RXF 631 was > 100 µM (inactive) in each case. Moreover, the GI50 in the test with SNB-78 and in the test on XF498 was > 100 µM (inactive) in each case.
For the compound `CC1OC(OC2CC(O)(C(=O)CO)Cc3c(O)c4c(c(O)c32)C(=O)c2ccccc2C4=O)CC(N)C1O` (centres undefined), the GI50 is < 0.01 µM (active) in the test with DLD-1; < 0.01 µM (active) with DMS-114; < 0.01 µM (active) in the test on HOP-18; < 0.0117 µM (active) in the test on KM-20L2; < 0.0238 µM (active) in the test on LXFL 529; < 0.01 µM (active) with M19-MEL. Further, the GI50 in the test with RXF 631 was 0.0102 µM (active); in the test with SNB-78 it was 0.0637 µM (active).
Consider `CCN(c1ccc(Br)cc1)c1c(Br)c(=O)nc2ccccn12`, for which the GI50 is > 100 µM (inactive) with DLD-1; 70.6 µM (inactive) in the test with DMS-114; > 100 µM (inactive) in the test on KM-20L2; > 100 µM (inactive) in the test with LXFL 529; > 100 µM (inactive) in the test on M19-MEL; > 100 µM (inactive) in the test on RXF 631. Further, the GI50 in the test on SNB-78 and in the test on XF498 was > 100 µM (inactive) each time.
Regarding `OCC#CCNCl`, the GI50 in the test on DLD-1, with DMS-114, in the test on HOP-18, in the test with KM-20L2, with M19-MEL and in the test on SNB-78 was > 100 µM (inactive) throughout. Besides, the GI50 in the test on XF498 is > 53.1 µM (inactive).
With `CN(C)C(=S)/N=c1\sn(C)/c(=N\C(=S)N(C)C)n1C`, the GI50 in the test with DLD-1 is > 100 µM (inactive); in the test with HOP-18, > 100 µM (inactive); with KM-20L2 it was > 100 µM (inactive); in the test with LXFL 529, > 100 µM (inactive); with M19-MEL, 25.8 µM (inactive); in the test on RXF 631, > 100 µM (inactive). In addition, the GI50 in the test with SNB-78 and with XF498 was > 100 µM (inactive) in each case.
For `CN(C(=O)C12C3(C(=O)C(C)(C)C)C4C5(C#N)C3C1(C(=O)C(C)(C)C)C5C42C(=O)C(C)(C)C)C(C)(C)C` (centres undefined), the GI50 was 35.3 µM (inactive) with DLD-1; 17.7 µM (inactive) in the test with DMS-114; > 50 µM (inactive) in the test with KM-20L2; 21.4 µM (inactive) in the test on LXFL 529; > 50 µM (inactive) in the test on M19-MEL; 42.4 µM (inactive) with RXF 631. The GI50 in the test with SNB-78 is > 50 µM (inactive); in the test with XF498, 10.4 µM (inactive).
As for `C=C(CO)CC(O)c1ccccc1` (centres undefined), the GI50 in the test with DLD-1, in the test with DMS-114, with KM-20L2, with LXFL 529, in the test with M19-MEL and with RXF 631 was > 100 µM (inactive) each time. Also, the GI50 with SNB-78 and with XF498 was > 100 µM (inactive) in each case.
Take `O=C1C2CN(Cc3ccccc3)CC1CN(CC1CC1)C2`: the GI50 in the test on DMS-114, in the test on HOP-18, in the test with KM-20L2, with LXFL 529, with M19-MEL and in the test on XF498 was > 100 µM (inactive) each time.
Take `CC(=O)OCCOCNC(=S)N/N=C/c1ccc([N+](=O)[O-])o1`: the GI50 was 53.1 µM (inactive) with DLD-1; 17.1 µM (inactive) in the test with DMS-114; > 100 µM (inactive) in the test on HOP-18; 26.4 µM (inactive) with KM-20L2; 77.6 µM (inactive) with LXFL 529; 15.7 µM (inactive) with M19-MEL. In addition, the GI50 is 58.7 µM (inactive) in the test on RXF 631, > 100 µM (inactive) in the test on SNB-78 and > 100 µM (inactive) with XF498.
Consider `c1cc(-c2cn3c(n2)SCC3)ccn1`, for which the GI50 in the test on DLD-1 was > 75.7 µM (inactive); in the test with DMS-114 it was > 55 µM (inactive); with HOP-18, > 100 µM (inactive); in the test with KM-20L2, > 100 µM (inactive); with LXFL 529, > 90.6 µM (inactive); with M19-MEL it was > 60 µM (inactive). Moreover, the GI50 in the test on SNB-78 and in the test on XF498 was > 100 µM (inactive) throughout.
For `O=C1C(c2ccccc2)=C(c2ccccc2)C(c2ccc(CCCCCCc3ccc(C4=C(c5ccccc5)C(=O)C(c5ccccc5)=C4c4ccccc4)cc3)cc2)=C1c1ccccc1`, the GI50 with DLD-1, with DMS-114, in the test on KM-20L2, in the test with LXFL 529, in the test with M19-MEL and with RXF 631 was > 100 µM (inactive) in each case. The GI50 in the test with SNB-78 was > 100 µM (inactive).
As to `COc1ccccc1NC(=O)C1=C(C)NC(C)=C(C(=O)Nc2ccccc2OC)C1c1ccc(C(C)C)cc1`, the GI50 with DLD-1 was > 100 µM (inactive); with HOP-18, > 100 µM (inactive); with KM-20L2 it was 48.4 µM (inactive); in the test on LXFL 529, > 100 µM (inactive); in the test with M19-MEL, > 100 µM (inactive); in the test with RXF 631, > 100 µM (inactive). The GI50 in the test with XF498 is 18.6 µM (inactive).
As to `CN1C(=O)C2C(C1=O)C1(O)c3ccccc3C2(N)c2ccccc21` (centres undefined), the GI50 with DLD-1, in the test on DMS-114, in the test on HOP-18, with M19-MEL, in the test on RXF 631 and with SNB-78 was > 100 µM (inactive) in each case.
With `CS(=O)(=O)N(N(CCCl)S(=O)(=O)c1ccccc1)S(C)(=O)=O`, the GI50 in the test with DLD-1 is > 100 µM (inactive); in the test on HOP-18, 31 µM (inactive); with KM-20L2 it was > 100 µM (inactive); in the test with LXFL 529, > 100 µM (inactive); in the test with M19-MEL it was > 100 µM (inactive); with RXF 631, > 100 µM (inactive). Also, the GI50 in the test on XF498 is > 100 µM (inactive).
